Reference: US20250262331A1, “COMPOSITION AND METHODS FOR IMPROVING SIGNS AND SYMPTOMS OF OCULAR DISORDERS” (Azura Ophthalmics Ltd., priority 2022, published 2025)

System: sebaceous cells
Assay: Preclinical sebum production in sebaceous cells
Format: cell-based
Settings: preclinical data; lower effect observed at higher concentrations

Compound: S=[Se]=S [selenium disulfide]
- effect on sebum production in sebaceous cells: non-linear dose response
